Assay results as given in US20070179084A1, “Process for reducing the concentration of blood glucose in a diabetic patient” (Nation Chiao Tung University, priority 2006, published 2007).

How the values were obtained:
C2C12 cells [1] = assay: Glucose absorption (2-deoxy-D-glucose uptake) by differentiated C2C12 myotubes, Amplex Red Glucose/Glucose Oxidase Assay Kit; type: cell-based, mouse; details: for glucose absorption in contrast to C2C12 cells without stimulation (in words): 0.1 μM, 1 μM, 10 μM and 100 μM metal solution
Procedure: The cells are cultured and differentiate. […] Then, a half of the culture media are removed and replaced with fresh differentiation media (90% DMEM (Dulbecco's Modified Eagle's Medium) and 10% FBS (fetal bovine serum)). […] In normal physiological conditions, the myotube differentiates from the myoblast and aggregates to form muscle. Therefore, the myotube has a cell type most similar to muscle, so that the cell type of used cells is a myotube in the whole test experiment. The glucose extracted from the cells is determined. […] When starting the experiment, add the stimulating samples with suitable concentration to the culture media and incubate at 37° C. for 30 minutes (mins). […] Finally, incubate the cells on ice for 10 mins, to stop the reaction. Then, remove the culture media, and wash the cells three times with an ice-cold PBS solution. After washing, scrape the cells from the plate with ice-cold 65% EtOH and sonicate the cells. After spun in a centrifuge at 13000 rpm and 4° C. for 15 mins, transfer the supernatant to fresh the eppendorf tube and then spin the remainder in the centrifuge again to collect the supernatant again. The collected supernatants are mixed and dry the supernatant by vacuum centrifugation. After drying, the sample is acquired and assayed for […] levels using the Amplex Red Glucose/Glucose Oxidase Assay Kit.

C2C12 cells [2] = assay: Observation of change in cell type, floating and damage of C2C12 cells after stimulation
Text: In FIG. 4, the columns with the same patterns represent the C2C12 cells stimulated by the same metal ion (or oxidized metal ion) solutions and the sign under the transverse axle indicates the concentration of the metal ion (or oxidized metal ion) solution, corresponding to each column.
In FIG. 8, the columns with the same patterns represent treatment with the same complex and the sign under the transverse axle indicates the concentration of the complex corresponding to each column.

[3] = 0.1 μM metal solution, co-treatment with 1 μM insulin, vs no stimulating sample
[4] = 1 μM metal solution, co-treatment with 10 μM insulin, vs no stimulating sample
[5] = 10 μM metal solution, co-treatment with 6 pM insulin, vs no stimulating sample
[6] = 100 μM metal solution, 30 min, vs C2C12 cells without stimulation
[7] = 100 μM metal solution, co-treatment with 1 μM insulin, vs no stimulating sample
[8] = 1 mM metal solution and the insulin
[9] = 1 mM metal solution, no insulin
[10] = 40 mg/ml solution including 1 mM metal ion, no insulin
[11] = 10 μM metal solution, 30 min, vs C2C12 cells without stimulation
[12] = 40 μg/ml complex, co-treated with 10 μM insulin, vs no stimulating sample
[13] = 40 mg/ml complex solution including 1 mM metal ion and the insulin

In the case of `[Co+3]` [Co^3+, cobalt (III) ion], the “fold increase in glucose absorption” value (C2C12 cells [1]; [3]) was 7.73 fold, the “glucose absorption in contrast to C2C12 cells without stimulation (in words)” value (C2C12 cells [1]) was “enhanced” and the “fold increase in glucose absorption” value (C2C12 cells [1]; [4]) was 4.37 fold. The “fold increase in glucose absorption” value (C2C12 cells [1]; [5]) was 3.95 fold, the “fold increase in glucose absorption” value (C2C12 cells [1]; [6]) was 3.14 fold and the “fold increase in glucose absorption” value (C2C12 cells [1]; [7]) was 8.5 fold. For the same compound, the “fold increase in glucose absorption” value (C2C12 cells [1]; [8]) was 4.4 fold, the “fold increase in glucose absorption” value (C2C12 cells [1]; [9]) was 2.5 fold and the “fold increase in glucose absorption” value (C2C12 cells [1]; [10]) was 3.0 fold. The “change of cell type / damage of C2C12 cells” value (C2C12 cells [2]; 100 μM metal solution with insulin co-treatment) was “the type of C2C12 cells changes and the C2C12 cells are damaged” and the “change of cell type / damage of C2C12 cells” value (C2C12 cells [2]; stimulation for 30 mins, 100 μM (high concentration) for metal solution) was “damaged at a certain level”.
In the case of `[Cr+3]` [Cr^3+, chromium (III) ion], the “fold increase in glucose absorption” value (C2C12 cells [1]; [3]) was 4.84 fold, the “glucose absorption in contrast to C2C12 cells without stimulation (in words)” value (C2C12 cells [1]) was “enhanced” and the “fold increase in glucose absorption” value (C2C12 cells [1]; 1 μM metal solution, co-treatment with 1 μM insulin, vs no stimulating sample) was 3.71 fold. For the same compound, the “fold increase in glucose absorption” value (C2C12 cells [1]; [11]) was 2.21 fold, the “fold increase in glucose absorption” value (C2C12 cells [1]; [5]) was 2.36 fold and the “fold increase in glucose absorption” value (C2C12 cells [1]; [6]) was 2.41 fold. The “fold increase in glucose absorption” value (C2C12 cells [1]; [7]) was 3.74 fold, the “fold increase in glucose absorption” value (C2C12 cells [1]; [8]) was 1.3 fold and the “fold increase in glucose absorption” value (C2C12 cells [1]; [9]) was 1.6 fold. The “fold increase in glucose absorption” value (C2C12 cells [1]; [10]) was 3.9 fold.
“Co-TF: complex of the transferrin and Co^3+, from apo-transferrin and Co^3+ solution (3:1 mole ratio)” was tested, and the “fold increase in glucose absorption” value (C2C12 cells [1]; [12]) was 7.01 fold, the “fold increase in glucose absorption” value (C2C12 cells [1]; 100 μg/ml complex, vs no stimulating sample) was 4.97 fold and the “fold increase in glucose absorption” value (C2C12 cells [1]; [13]) was 7.1 fold.
`[O]=[V+2]` [VO^2+, vanadyl] was tested, and the “fold increase in glucose absorption” value (C2C12 cells [1]; 0.1 μM metal solution, co-treatment with 0.1 μM insulin, vs no stimulating sample) was 2.62 fold, the “glucose absorption in contrast to C2C12 cells without stimulation (in words)” value (C2C12 cells [1]) was “enhanced” and the “fold increase in glucose absorption” value (C2C12 cells [1]; [4]) was 2.7 fold. For the same compound, the “fold increase in glucose absorption” value (C2C12 cells [1]; [11]) was 2.61 fold, the “fold increase in glucose absorption” value (C2C12 cells [1]; 10 μM metal solution, co-treatment with 10 μM insulin, vs no stimulating sample) was 6.21 fold and the “fold increase in glucose absorption” value (C2C12 cells [1]; [6]) was 2.38 fold. For the same compound, the “fold increase in glucose absorption” value (C2C12 cells [1]; [7]) was 3.4 fold, the “fold increase in glucose absorption” value (C2C12 cells [1]; [8]) was 2.7 fold and the “fold increase in glucose absorption” value (C2C12 cells [1]; [9]) was 1.9 fold. For the same compound, the “fold increase in glucose absorption” value (C2C12 cells [1]; [10]) was 4.4 fold.
“Cr-TF: complex of the transferrin and Cr^3+” was tested, and the “fold increase in glucose absorption” value (C2C12 cells [1]; [12]) was 4.94 fold, the “fold increase in glucose absorption” value (C2C12 cells [1]; 80 μg/ml complex, vs no stimulating sample) was 4.03 fold and the “fold increase in glucose absorption” value (C2C12 cells [1]; [13]) was 5.0 fold.
“VO-TF: complex of the transferrin and VO^2+” was tested, and the “fold increase in glucose absorption” value (C2C12 cells [1]; [12]) was 6.07 fold, the “fold increase in glucose absorption” value (C2C12 cells [1]; 40 μg/ml complex, vs no stimulating sample) was 4.43 fold and the “fold increase in glucose absorption” value (C2C12 cells [1]; [13]) was 6.1 fold.
